Experimental data as given in ChEMBL document CHEMBL4425086 (J Nat Prod, 2016).
Activity calls are given as the source filed them. No cut-off for these calls is given here.

Key:
DRG neuron = test: Increase in calcium level in DRG neurons isolated from TRPA1 deficient mouse at 10 uM by fura2/AM dye based plate reader analysis; assay type: functional, cell-based
[1] = target: T1, Transient receptor potential cation channel subfamily A member 1 (Homo sapiens, UniProt O75762); test: Activation of human TRPA1 expressed in HEK293 cells assessed as increase in calcium level at 20 uM by fura2/AM dye based single cell based plate reader analysis
[2] = target: T1, Transient receptor potential cation channel subfamily A member 1; test: Activation of human TRPA1 expressed in HEK293 cells assessed as induction of inward current at 10 uM at -70 to +70 mV by whole cell patch clamp assay; assay type: cell-based
[3] = target: T1, Transient receptor potential cation channel subfamily A member 1; test: Activation of human TRPA1 expressed in HEK293 cells assessed as induction of outward current at 10 uM at -70 to +70 mV by whole cell patch clamp assay; assay type: cell-based
[4] = target: Transient receptor potential cation channel subfamily A member 1 (Mus musculus) (UniProt Q8BLA8); test: Activation of TRPA1 in wild type mouse DRG neurons assessed as increase in calcium level at 10 uM treated after 10 uM Plumbagin pre-treatment by fura2/AM dye based plate reader analysis relative to control
[5] = target: T1, Transient receptor potential cation channel subfamily A member 1; test: Activation of human TRPA1 expressed in HEK293 cells assessed as increase in calcium level at 20 uM in presence of TRPA1 channel blocker A-967079 by fura2/AM dye based single cell based plate reader analysis
HEK293 [6] = test: Increase in calcium level in HEK293 cells at 20 uM by fura2/AM dye based single cell based plate reader analysis; assay type: functional; conditions: Homo sapiens
[7] = target: T1, Transient receptor potential cation channel subfamily A member 1; test: Activation of human TRPA1 expressed in HEK293 cells assessed as increase in calcium level by fluo-4 dye based plate reader analysis; assay type: cell-based
[8] = target: T1, Transient receptor potential cation channel subfamily A member 1; test: Activation of human TRPA1 expressed in HEK293 cells assessed as induction of current at 10 uM at -70 to +70 mV by whole cell patch clamp assay; assay type: cell-based
[9] = target: Transient receptor potential cation channel subfamily A member 1 (Mus musculus) (UniProt Q8BLA8); test: Activation of TRPA1 in wild type mouse DRG neurons assessed as increase in calcium level at 10 uM by fura2/AM dye based plate reader analysis relative to control
HEK293 [10] = test: Increase in calcium level in HEK293 cells at 0.1 to 100 uM by fluo-4 dye based plate reader analysis; assay type: functional, cell-based; conditions: Homo sapiens
[11] = target: T1, Transient receptor potential cation channel subfamily A member 1; test: Activation of human TRPA1 expressed in HEK293 cells assessed as induction of inward current at 10 uM at -70 to +70 mV in presence of TRPA1 channel blocker A-967079 by whole cell patch clamp assay; assay type: cell-based
[12] = target: T1, Transient receptor potential cation channel subfamily A member 1; test: Activation of human TRPA1 expressed in HEK293 cells assessed as induction of outward current at 10 uM at -70 to +70 mV in presence of TRPA1 channel blocker A-967079 by whole cell patch clamp assay; assay type: cell-based
[13] = target: T1, Transient receptor potential cation channel subfamily A member 1; test: Activation of human TRPA1 expressed in HEK293 cells assessed as induction of current at 1 uM at -70 to +70 mV by whole cell patch clamp assay; assay type: cell-based
[14] = target: T1, Transient receptor potential cation channel subfamily A member 1; test: Decrease in TRPA1 current amplitude in human TRPA1 expressed HEK293 cells at 10 uM at high voltage by whole cell patch clamp assay; assay type: cell-based
[15] = target: T1, Transient receptor potential cation channel subfamily A member 1; test: Activation of human TRPA1 expressed in HEK293 cells assessed as induction of current at 1 to 10 uM at +70 mV in presence of extracellular catalase by whole cell patch clamp assay; assay type: cell-based
[16] = target: T1, Transient receptor potential cation channel subfamily A member 1; test: Activation of human TRPA1 expressed in HEK293 cells assessed as induction of current at 1 to 10 uM at +70 mV in presence of intracellular catalase by whole cell patch clamp assay; assay type: cell-based
[17] = Lipophilicity, logP of compound; conditions: octanol/water

Sequence of Transient receptor potential cation channel subfamily A member 1 (Mus musculus) (Q8BLA8 whole entry): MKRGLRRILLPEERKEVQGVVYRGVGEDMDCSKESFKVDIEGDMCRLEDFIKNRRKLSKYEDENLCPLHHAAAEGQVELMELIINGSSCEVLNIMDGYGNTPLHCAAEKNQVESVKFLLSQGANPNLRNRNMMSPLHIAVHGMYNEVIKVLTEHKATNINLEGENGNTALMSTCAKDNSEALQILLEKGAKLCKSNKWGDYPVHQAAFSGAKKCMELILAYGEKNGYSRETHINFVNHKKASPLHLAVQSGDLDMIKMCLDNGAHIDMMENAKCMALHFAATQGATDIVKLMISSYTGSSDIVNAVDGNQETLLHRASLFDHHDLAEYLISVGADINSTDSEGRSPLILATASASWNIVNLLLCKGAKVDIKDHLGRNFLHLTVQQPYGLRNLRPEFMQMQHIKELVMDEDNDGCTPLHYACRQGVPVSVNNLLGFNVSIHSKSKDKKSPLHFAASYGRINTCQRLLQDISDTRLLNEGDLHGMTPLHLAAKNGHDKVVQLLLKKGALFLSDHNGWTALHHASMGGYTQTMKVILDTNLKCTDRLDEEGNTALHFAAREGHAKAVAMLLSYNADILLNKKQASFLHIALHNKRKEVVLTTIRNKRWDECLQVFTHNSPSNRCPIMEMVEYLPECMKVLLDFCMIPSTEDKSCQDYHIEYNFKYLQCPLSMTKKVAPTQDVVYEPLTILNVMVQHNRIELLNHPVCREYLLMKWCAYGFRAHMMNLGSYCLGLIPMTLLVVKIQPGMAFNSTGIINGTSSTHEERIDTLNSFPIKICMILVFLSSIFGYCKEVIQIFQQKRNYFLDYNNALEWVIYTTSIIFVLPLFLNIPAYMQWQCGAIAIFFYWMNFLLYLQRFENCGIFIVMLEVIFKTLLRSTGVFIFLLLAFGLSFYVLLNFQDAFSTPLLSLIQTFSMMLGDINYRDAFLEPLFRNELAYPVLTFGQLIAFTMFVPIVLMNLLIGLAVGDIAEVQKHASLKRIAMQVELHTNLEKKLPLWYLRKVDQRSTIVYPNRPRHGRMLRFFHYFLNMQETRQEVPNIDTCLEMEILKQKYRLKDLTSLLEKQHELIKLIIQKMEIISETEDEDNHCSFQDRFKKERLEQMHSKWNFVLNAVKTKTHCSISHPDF
T1 sequence (O75762 whole entry): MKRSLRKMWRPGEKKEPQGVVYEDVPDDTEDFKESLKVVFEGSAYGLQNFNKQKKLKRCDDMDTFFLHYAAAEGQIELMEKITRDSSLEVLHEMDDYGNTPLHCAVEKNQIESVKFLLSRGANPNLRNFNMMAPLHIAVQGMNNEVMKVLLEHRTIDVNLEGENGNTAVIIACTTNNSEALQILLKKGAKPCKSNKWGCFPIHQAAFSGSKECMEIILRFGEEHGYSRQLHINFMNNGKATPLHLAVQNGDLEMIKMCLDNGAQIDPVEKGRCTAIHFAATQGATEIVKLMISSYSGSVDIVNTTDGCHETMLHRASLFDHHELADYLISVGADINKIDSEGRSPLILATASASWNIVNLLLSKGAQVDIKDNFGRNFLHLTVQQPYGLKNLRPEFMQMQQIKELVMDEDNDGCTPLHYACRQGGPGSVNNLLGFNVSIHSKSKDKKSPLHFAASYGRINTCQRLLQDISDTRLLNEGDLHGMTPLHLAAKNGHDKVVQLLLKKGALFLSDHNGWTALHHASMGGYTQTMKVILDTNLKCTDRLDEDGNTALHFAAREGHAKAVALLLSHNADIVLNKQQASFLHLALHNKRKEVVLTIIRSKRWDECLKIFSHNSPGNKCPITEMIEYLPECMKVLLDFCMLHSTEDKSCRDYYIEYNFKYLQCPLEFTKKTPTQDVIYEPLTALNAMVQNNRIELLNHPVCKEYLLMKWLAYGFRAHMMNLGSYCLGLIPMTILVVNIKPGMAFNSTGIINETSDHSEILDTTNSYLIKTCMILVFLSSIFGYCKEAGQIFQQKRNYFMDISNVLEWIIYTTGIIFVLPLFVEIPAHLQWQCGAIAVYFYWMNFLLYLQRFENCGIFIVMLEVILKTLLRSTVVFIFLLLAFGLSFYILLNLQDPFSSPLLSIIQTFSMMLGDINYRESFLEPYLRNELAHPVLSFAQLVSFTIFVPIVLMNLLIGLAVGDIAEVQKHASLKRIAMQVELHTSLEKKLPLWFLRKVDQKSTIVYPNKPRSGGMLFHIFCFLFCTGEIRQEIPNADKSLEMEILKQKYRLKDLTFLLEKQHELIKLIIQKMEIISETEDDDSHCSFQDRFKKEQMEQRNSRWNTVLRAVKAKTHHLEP

C=CCN=C=S
Activity (DRG neuron): inactive
Activity [1]: Active
Activity [2]: Active
Activity [3]: Active
Activity [4]: inactive

CC(C)=CCC/C(C)=C/COc1ccc2ccc(=O)oc2c1
Activity [1]: Active

COc1cc(/C=C/C(=O)O)ccc1OC/C=C(\C)CCC=C(C)C
Activity [1]: Active

COc1cc(/C=C/C=O)ccc1OC/C=C(\C)CCC=C(C)C
Activity [5]: inactive
Activity (HEK293 [6]): inactive
Activity [1]: Active

O=C1C=C(O)C(=O)c2ccccc21
Activity [1]: Active

COc1cc(/C=C/C=O)ccc1OCC=C(C)C [BOROPINAL]
Activity [5]: inactive
Activity (HEK293 [6]): inactive
EC50 [7]: 9800 nM
Activity [1]: Active
Activity [8]: inactive
Activity [9]: inactive

O=C1C=CC(=O)c2c(O)cccc21 [JUGLONE]
Activity [5]: inactive
Activity (HEK293 [6]): inactive
EC50 [7]: 1700 nM
Activity (HEK293 [10]): inactive
Activity [1]: Active
Activity [2]: Active
Activity [3]: Active
Activity [11]: inactive
Activity [12]: inactive

CC1=CC(=O)c2c(O)cccc2C1=O [PLUMBAGIN]
Activity (DRG neuron): inactive
Activity [5]: inactive
Activity (HEK293 [6]): inactive
EC50 [7]: 460 nM
Activity [1]: Active
Activity [13]: inactive
Activity [14]: Active
Activity [15]: 65 pA/pF
Activity [16]: 93.5 pA/pF
Activity [9]: 50%
logP [17]: 3.69
